How the values were obtained:
A549 = test: MTT cell viability assay, A549; type: cell-based; conditions: Homo sapiens, 24 h incubation, mean ± SD, n = 4
Experimental: (§1) The synthesized compounds were subjected to a cytotoxicity assay using the MTT method, as described previously. IC50 is defined as the drug concentration causing a 50% reduction in cell numbers compared to the untreated control. For screening, we evaluated the effects of the compounds on the growth of three cancer cell lines (A549, SGC-7901, and HeLa). In addition, their toxicities were tested using one normal cell line (L-02). The results are the averages of four separate measurements. MTX and 5-FU served as positive controls.
(§2) The three cancer cell lines namely the human lung cancer cell line (A549), human cervical cancer cell line (HeLa), human gastric carcinoma cell line (SGC-7901), and normal liver cell line (L-02) were acquired from the American Type Culture Collection (Manassas, VA, USA). A549 and SGC-7901 cells were routinely cultured in RPMI-1640. In addition, HeLa and L-02 cells were routinely cultured in DMEM. Media was supplemented with 10% fetal bovine serum (FBS). Cells were maintained at subconfluency at 37 °C in humidified air containing 5% CO2. The cells were monitored daily and maintained at 80% cell density. All compounds tested were dissolved in DMSO and then diluted by the culture medium before the treatment of cultured cells.
(§3) Cytotoxicity of the tested samples was measured against each cell line using the 3-(4,5-dimethylthiazol-2-yl)-2,5-diphenyltetrazolium bromide (MTT) cell viability assay (Maher et al., 2019). Cancer cells (A549, SGC-7901, and HeLa) and L-02 normal cells were harvested during the logarithmic growth phase. All cells were seeded in 96-well plates at 10^4 cells/well and were treated with 5-fluorouracil (5-FU), methotrexate (MTX), and the tested samples for 24 h at final concentrations of […]. Next, 20 µL of freshly prepared MTT (Solarbio) solution (5 mg/mL of MTT in PBS) was added to each well, and the cells were cultured for 4 h at 37 °C. The supernatants were removed and resolved with 100 µL of DMSO, and the cells were shocked for 10 min at 37 °C. The optical density of the samples was measured at 490 nm using a microplate luminometer. Cell viability was expressed as the percentage change in absorbance compared to the control values.

HeLa = test: MTT cell viability assay, HeLa; type: cell-based; conditions: Homo sapiens, 24 h incubation, mean ± SD, n = 4
Experimental: as §1, §2, §3

SGC-7901 = test: MTT cell viability assay, SGC-7901; type: cell-based; conditions: Homo sapiens, 24 h incubation, mean ± SD, n = 4
Experimental: as §1, §2, §3

L-02 = test: MTT cytotoxicity in normal cell line L-02; type: cell-based; conditions: for IC50: Homo sapiens, L02, normal cell line L-02, MTT; for Selectivity Index A549: IC50 in normal cells (L-02)/IC50 in tumor cells (A549); for Selectivity Index HeLa: IC50 in normal cells (L-02)/IC50 in tumor cells (HeLa); for Selectivity Index SGC-7901: IC50 in normal cells (L-02)/IC50 in tumor cells (SGC-7901)
Experimental: as §1
The lack of selectivity between normal and cancer cells is one of the primary limitations of antitumor drugs. We evaluated the cytotoxicity of compounds 4c, 4e–4i, 4l, 4m, and 4q in the normal cell line L-02 to determine the selectivity index (defined as the ratio of cytotoxicity in L-02 cells compared to that in cancer cells). […] Compound 4q yielded satisfactory SI values in HeLa and SGC-7901 cells but an unsatisfactory SI value in A549 cells. […] Compound 4f was selected for the subsequent biological studies.
as §2, §3

IC50 (A549) [µM] | IC50 (HeLa) [µM] | IC50 (SGC-7901) [µM] | melting point [°C] | Structure (SMILES) | IC50 (L-02) [µM] | Selectivity Index A549 (L-02) | Selectivity Index HeLa (L-02) | Selectivity Index SGC-7901 (L-02)
43.4 ± 5.42 | 13.3 ± 1.37 | 10.6 ± 1.75 | 184 to 188 | CCc1nccn1-c1ccc(NC(=O)CCC(=O)Nc2ccc(Cl)cc2)cc1 [Compound 4e, 1-(4-(3-(4-Cl-Phenylcarbamoyl)propionamide)phenyl)-2-ethyl Imidazol] | 313 ± 18 | 7.22 | 23.58 | 29.48
31.1 ± 3.81 | 4.91 ± 0.71 | 2.96 ± 0.29 | 116 to 120 | CCc1nccn1-c1ccc(NC(=O)CCC(=O)NCc2ccccc2Cl)cc1 [Compound 4q] | > 500 |  |  | >168.92
> 100 | > 100 | > 100 | 163 to 165 | CCc1nccn1-c1ccc(NC(=O)CCC(=O)O)cc1 [Compound 3, 3-(4-(2-Ethyl-1H-imidazol-1-yl)phenylcarbamoyl)propanoic Acid] |  |  |  | 
> 100 | > 100 | > 100 | 128 to 130 | CCCNC(=O)CCC(=O)Nc1ccc(-n2ccnc2CC)cc1 [Compound 4a, 1-(4-(3-(Propylcarbamoyl)propionamide)phenyl)-2-ethyl Imidazole] |  |  |  | 
32.2 ± 4.79 | 6.31 ± 0.79 | 13.1 ± 3.02 | 200 to 202 | CCc1nccn1-c1ccc(NC(=O)CCC(=O)Nc2ccc(C)cc2)cc1 [Compound 4h] | 290 ± 26.6 | 9.00 | 45.94 | 22.10
> 100 | 7.42 ± 0.67 | > 100 | 229 to 231 | CCc1nccn1-c1ccc(NC(=O)CCC(=O)Nc2ccc(N)cc2)cc1 [Compound 4j, 1-(4-(3-(4-amino-Phenylcarbamoyl)propionamide)phenyl)-2-ethylimidazole] |  |  |  | 
75.9 ± 4 | 25.5 ± 4.94 | 40.3 ± 4.67 | 168 to 171 | CCc1nccn1-c1ccc(NC(=O)CCC(=O)NCc2ccc(OC)cc2)cc1 [Compound 4p, 1-(4-(3-(4-Methoxybenzylcarbamoyl)propanamide)phenyl)-2-ethylimidazole] |  |  |  | 
> 100 | > 100 | 52.5 ± 3.36 | 112 to 115 | CCCCNC(=O)CCC(=O)Nc1ccc(-n2ccnc2CC)cc1 [Compound 4b, 1-(4-(3-(Butylcarbamoyl)propionamide)phenyl)-2-ethyl Imidazol] |  |  |  | 
> 100 | 15.2 ± 1.4 | 20.6 ± 2 | 123 to 126 | CCc1nccn1-c1ccc(NC(=O)CCC(=O)NCc2ccccc2)cc1 [Compound 4k, 1-(4-(3-(Benzylcarbamoyl)propionamide)phenyl)-2-ethyl Imidazol] |  |  |  | 
11 ± 1.31 | 7.04 ± 1.07 | 8.39 ± 1.11 | 138 to 142 | CCc1nccn1-c1ccc(NC(=O)CCC(=O)NCc2ccc(Cl)cc2)cc1 [Compound 4l, 1-(4-(3-(4-Cl-Benzylcarbamoyl)propionamide)phenyl)-2-ethyl Imidazol] | 114 ± 16.7 | 10.36 | 16.13 | 13.53
71.3 ± 9.13 | 12.5 ± 0.91 | 11.6 ± 1.59 | 164 to 166 | CCc1nccn1-c1ccc(NC(=O)CCC(=O)NCc2ccc(C)cc2)cc1 [Compound 4o, 1-(4-(3-(4-Methylbenzylcarbamoyl)propionamide)phenyl)-2-ethylimidazole] |  |  |  | 
13.8 ± 1.92 | 16.5 ± 1.48 | 14 ± 2.29 | 75 to 78 | CCc1nccn1-c1ccc(NC(=O)CCC(=O)Nc2ccc(F)cc2)cc1 [Compound 4g, 1-(4-(3-(4-F-Phenylcarbamoyl)propionamide)phenyl)-2-ethyl Imidazol] | 42.6 ± 6.37 | 3.10 | 2.58 | 3.04
> 100 | > 100 | 41.9 ± 3.47 | 118 to 121 | CCc1nccn1-c1ccc(NC(=O)CCC(=O)NCc2ccccn2)cc1 [Compound 4r, 1-(4-(3-(Pyridinemethylcarbamoyl)propionamide)phenyl)-2-ethyl Imidazole] |  |  |  | 
> 100 | 9.36 ± 1.78 | > 100 | 137 to 140 | CCc1nccn1-c1ccc(NC(=O)CCC(=O)NCc2ccc(F)cc2)cc1 [Compound 4n, 1-(4-(3-(4-F-Benzylcarbamoyl)propionamide)phenyl)-2-ethylimidazole] |  |  |  | 
23.8 ± 7.16 | 7.01 ± 1.3 | 15.5 ± 2.84 | 160 to 163 | CCc1nccn1-c1ccc(NC(=O)CCC(=O)Nc2ccc(OC)cc2)cc1 [Compound 4i, 1-(4-(3-(4-Methoxybenzecarbamoyl)propionamide)phenyl)-2-ethyl Imidazole] | 210 ± 25.5 | 8.81 | 29.89 | 13.55
28.6 ± 2.51 | 4.07 ± 0.59 | 15.2 ± 1.74 | 143 to 145 | CCc1nccn1-c1ccc(NC(=O)CCC(=O)NCc2ccc(Br)cc2)cc1 [Compound 4m, 1-(4-(3-(4-Br-Benzylcarbamoyl)propionamide)phenyl)-2-ethylimidazole] | 210 ± 20.3 | 7.35 | 51.59 | 13.85
16 ± 3.2 | 15 ± 2.47 | 13.7 ± 1.29 |  | CN(Cc1cnc2nc(N)nc(N)c2n1)c1ccc(C(=O)N[C@@H](CCC(=O)O)C(=O)O)cc1 [MTX, methotrexate, reference compound] | 42.9 ± 8.07 | 2.68 | 2.85 | 3.14
33.9 ± 2.43 | 28.5 ± 2.51 | 18.5 ± 2.12 | 95 to 98 | CCCCCNC(=O)CCC(=O)Nc1ccc(-n2ccnc2CC)cc1 [Compound 4c, 1-(4-(3-(Amylcarbamoyl)propionamide)phenyl)-2-ethyl Imidazole] | 114 ± 8.35 | 3.35 | 3.99 | 6.13
24 ± 3.47 | 14.8 ± 2.05 | 56.3 ± 3.24 | 168 to 170 | CCc1nccn1-c1ccc(NC(=O)CCC(=O)Nc2nccs2)cc1 [Compound 4s, 1-(4-(3-(Thiazolcarbamoyl)propionamide)phenyl)-2-ethyl Imidazole] |  |  |  | 
86.5 ± 10.6 | > 100 | > 100 | 170 to 173 | CCc1nccn1-c1ccc(NC(=O)CCC(=O)Nc2ccccc2)cc1 [Compound 4d, 1-(4-(3-(Phenylcarbamoyl)propionamide)phenyl)-2-ethylimidazole] |  |  |  | 
